Patent US20240150300A1, “S-CONFIGURATION-CONTAINING AMINO BENZAMIDE PYRIDAZINONE COMPOUND, PREPARATION METHOD THEREFOR, AND PHARMACEUTICAL COMPOSITION AND APPLICATION THEREOF” (SHANGHAI INSTITUTE OF MATERIA MEDICA, CHINESE ACADEMY OF …, priority 2021, published 2024)

Legend:
[1] = system: EoL-1; assay: Antiproliferative activity, CCK-8, EoL-1; assay type: cell-based; details: EoL-1, Chronic eosinophilic leukemia; read-out: Cytotoxicity (IC50 μM)
Description: (§1) The tumor cells used were purchased from commercial cell banks (HCT116 purchased from ATCC, SKM 1 purchased from JCRB). The growth inhibition of cells was detected using the CCK-8 method. The specific steps were as follows. Cells in the logarithmic growth phase were seeded into a 96 well culture plate at an appropriate density, with 90 μL/well. After overnight cultivation, different concentrations of drugs were added for treatment for 72 h, with each concentration in triplicate, and corresponding concentration of vehicle control and cell-free blank wells were also set. After the treatment, 10 μL of CCK-8 was added to each well and the plate was incubated in an incubator for 2-4 hours, and the optical density (OD value) at a wavelength of 450 nm was measured using a SpectraMax 190 microplate reader. […] The experiment was repeated twice, and the mean value and SD were calculated.
(§2) The testing method for antiproliferative activity was the same as that mentioned in Pharmacological Experiment Example 2, and the results are shown in Table 4 and FIGS. 2-3.

[2] = system: RL; assay: Antiproliferative activity, CCK-8, RL; assay type: cell-based; details: Diffuse large B-cell lymphoma, read-out: Cytotoxicity (IC50 μM)
Description: as §1, §2

[3] = system: A375; assay: Antiproliferative activity, CCK-8, A375; assay type: cell-based, human; details: A375, Melanoma; read-out: Cytotoxicity (IC50 μM)
Description: as §1, §2

[4] = system: WILL-1; assay: Antiproliferative activity, CCK-8, WILL-1; assay type: cell-based; details: WILL-1, Diffuse large B-cell lymphoma; read-out: Cytotoxicity (IC50 μM)
Description: as §1, §2

[5] = system: KMS-11; assay: Antiproliferative activity, CCK-8, KMS-11; assay type: cell-based; details: KMS-11, Human multiple myeloma; read-out: Cytotoxicity (IC50 μM)
Description: as §1, §2

[6] = system: CMK; assay: Antiproliferative activity, CCK-8, CMK; assay type: cell-based; details: Down syndrome acute megakaryocyte leukemia, read-out: Cytotoxicity (IC50 μM)
Description: as §1, §2

[7] = system: human acute myeloid leukemia cells OCI-AML-3 transplanted tumor; assay: OCI-AML-3 NOD/SCID mice transplanted tumor model; assay type: in vivo; details: oral 60 mg/kg
[8] = system: REC-1; assay: Antiproliferative activity, CCK-8, REC-1; assay type: cell-based; details: REC-1, Human mantle cell lymphoma; read-out: Cytotoxicity (IC50 μM)
Description: as §1, §2

[9] = system: VMM39; assay: Antiproliferative activity, CCK-8, VMM39; assay type: cell-based; details: VMM39, Melanoma; read-out: Cytotoxicity (IC50 μM)
Description: as §1, §2

[10] = system: SK-BR-3; assay: Antiproliferative activity, CCK-8, SK-BR-3; assay type: cell-based; details: SK-BR-3, Breast cancer; read-out: Cytotoxicity (IC50 μM)
Description: as §1, §2

[11] = system: MDA-MB-453; assay: Antiproliferative activity, CCK-8, MDA-MB-453; assay type: cell-based; details: MDA-MB-453, Breast cancer; read-out: Cytotoxicity (IC50 μM)
Description: as §1, §2

[12] = system: NU-DHL-1; assay: Antiproliferative activity, CCK-8, NU-DHL-1; assay type: cell-based; details: NU-DHL-1, Diffuse large B-cell lymphoma; read-out: Cytotoxicity (IC50 μM)
Description: as §1, §2

[13] = system: Mino; assay: Antiproliferative activity, CCK-8, Mino; assay type: cell-based; details: Mantle cell lymphoma, read-out: Cytotoxicity (IC50 μM)
Description: as §1, §2

[14] = system: MO-91; assay: Antiproliferative activity, CCK-8, MO-91; assay type: cell-based; details: MO-91, Acute myeloid leukemia; read-out: Cytotoxicity (IC50 μM)
Description: as §1, §2

[15] = biological target: HDAC6 (Homo sapiens (Human), UniProt Q9UBN7); assay: In vitro histone deacetylase activity assay (HTRF), HDAC6; assay type: biochemical; details: H3(1-21) K9Ac biotin substrate
Sequence of HDAC6 (Q9UBN7 whole entry): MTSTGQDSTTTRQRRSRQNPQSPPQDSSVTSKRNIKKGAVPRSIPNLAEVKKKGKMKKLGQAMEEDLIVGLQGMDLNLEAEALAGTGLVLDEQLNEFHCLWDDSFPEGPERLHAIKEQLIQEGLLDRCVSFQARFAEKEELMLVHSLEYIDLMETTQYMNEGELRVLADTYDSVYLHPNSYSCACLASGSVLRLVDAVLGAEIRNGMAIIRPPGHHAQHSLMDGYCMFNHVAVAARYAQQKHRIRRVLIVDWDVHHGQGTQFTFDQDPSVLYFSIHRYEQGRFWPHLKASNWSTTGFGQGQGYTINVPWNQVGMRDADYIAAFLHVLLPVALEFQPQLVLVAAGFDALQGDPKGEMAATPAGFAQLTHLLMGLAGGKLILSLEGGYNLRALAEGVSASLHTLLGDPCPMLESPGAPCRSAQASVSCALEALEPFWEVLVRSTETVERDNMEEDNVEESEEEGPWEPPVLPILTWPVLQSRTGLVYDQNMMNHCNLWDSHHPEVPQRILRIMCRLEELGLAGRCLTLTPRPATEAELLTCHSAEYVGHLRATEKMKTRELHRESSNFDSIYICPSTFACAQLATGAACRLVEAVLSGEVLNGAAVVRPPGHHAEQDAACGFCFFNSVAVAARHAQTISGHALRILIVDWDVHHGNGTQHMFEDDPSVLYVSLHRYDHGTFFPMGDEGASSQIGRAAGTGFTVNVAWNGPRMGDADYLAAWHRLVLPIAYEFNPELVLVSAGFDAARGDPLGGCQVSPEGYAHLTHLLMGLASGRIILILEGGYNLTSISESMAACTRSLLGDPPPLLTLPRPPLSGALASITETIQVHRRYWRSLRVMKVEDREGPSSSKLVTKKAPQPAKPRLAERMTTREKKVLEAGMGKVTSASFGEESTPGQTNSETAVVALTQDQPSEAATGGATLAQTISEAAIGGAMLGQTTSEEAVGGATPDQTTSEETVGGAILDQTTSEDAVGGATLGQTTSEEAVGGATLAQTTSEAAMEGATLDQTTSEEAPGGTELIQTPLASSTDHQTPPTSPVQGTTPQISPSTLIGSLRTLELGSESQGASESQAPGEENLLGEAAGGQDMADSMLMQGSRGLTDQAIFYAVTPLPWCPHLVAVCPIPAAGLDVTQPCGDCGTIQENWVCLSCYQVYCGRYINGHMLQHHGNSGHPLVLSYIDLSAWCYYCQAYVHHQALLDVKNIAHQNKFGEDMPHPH
Description: (§3) Human recombinant HDAC family proteins with His and GST tags were expressed using insect baculovirus expression system, and a biologically active HDAC family recombinant protein was obtained through Ni affinity column protein purification. HTRF detection method was used with H3(1-21) K9Ac biotin as the substrate. […] Briefly, 20 μl of the activity testing system included the HDAC substrate (0.2 μM. 4 μl), the Human Recombinant Protein HDAC (2-5 ng)/μl.

[16] = system: PC-9; assay: Antiproliferative activity, CCK-8, PC-9; assay type: cell-based; details: PC-9, Lung cancer; read-out: Cytotoxicity (IC50 μM)
Description: as §1, §2

[17] = system: SU-DHL-8; assay: Antiproliferative activity, CCK-8, SU-DHL-8; assay type: cell-based; details: SU-DHL-8, Diffuse large B-cell lymphoma; read-out: Cytotoxicity (IC50 μM)
Description: as §1, §2

[18] = system: MOLP-8; assay: Antiproliferative activity, CCK-8, MOLP-8; assay type: cell-based; details: MOLP-8, Human multiple myeloma; read-out: Cytotoxicity (IC50 μM)
Description: as §1, §2

[19] = biological target: HDAC3 (Homo sapiens (Human), UniProt O15379); assay: HDAC subtype inhibitory activity (HTRF), HDAC3; assay type: biochemical
Sequence of HDAC3 (O15379 whole entry): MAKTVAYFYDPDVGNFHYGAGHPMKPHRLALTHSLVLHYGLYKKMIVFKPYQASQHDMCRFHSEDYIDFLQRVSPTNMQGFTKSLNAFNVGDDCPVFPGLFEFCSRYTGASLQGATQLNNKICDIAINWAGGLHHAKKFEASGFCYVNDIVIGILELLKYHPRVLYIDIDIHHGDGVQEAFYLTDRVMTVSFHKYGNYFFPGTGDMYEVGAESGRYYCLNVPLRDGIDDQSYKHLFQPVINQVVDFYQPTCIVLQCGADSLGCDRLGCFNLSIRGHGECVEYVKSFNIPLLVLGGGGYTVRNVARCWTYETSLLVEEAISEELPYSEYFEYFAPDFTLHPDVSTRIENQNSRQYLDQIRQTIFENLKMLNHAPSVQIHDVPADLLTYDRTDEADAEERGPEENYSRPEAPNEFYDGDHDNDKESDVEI
Sequence of HDAC3 (Q9Y618 395-489 partner): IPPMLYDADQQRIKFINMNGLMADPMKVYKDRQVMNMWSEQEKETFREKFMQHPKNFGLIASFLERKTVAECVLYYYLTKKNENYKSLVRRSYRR
Description: as §3

[20] = system: HCT-116 cells; assay: Antiproliferative activity, CCK-8, HCT-116; assay type: cell-based, human; details: 72 h
Description: as §1

[21] = system: K-562; assay: Antiproliferative activity, CCK-8, K-562; assay type: cell-based; details: K-562, Chronic myeloid leukemia; read-out: Cytotoxicity (IC50 μM)
Description: as §1, §2

[22] = system: NCI-H929; assay: Antiproliferative activity, CCK-8, NCI-H929; assay type: cell-based; details: NCI-H929, Human multiple myeloma; read-out: Cytotoxicity (IC50 μM)
Description: as §1, §2

[23] = biological target: HDAC8 (Homo sapiens (Human), UniProt Q9BY41); assay: HDAC subtype inhibitory activity (HTRF), HDAC8; assay type: biochemical
Sequence of HDAC8 (Q9BY41 whole entry): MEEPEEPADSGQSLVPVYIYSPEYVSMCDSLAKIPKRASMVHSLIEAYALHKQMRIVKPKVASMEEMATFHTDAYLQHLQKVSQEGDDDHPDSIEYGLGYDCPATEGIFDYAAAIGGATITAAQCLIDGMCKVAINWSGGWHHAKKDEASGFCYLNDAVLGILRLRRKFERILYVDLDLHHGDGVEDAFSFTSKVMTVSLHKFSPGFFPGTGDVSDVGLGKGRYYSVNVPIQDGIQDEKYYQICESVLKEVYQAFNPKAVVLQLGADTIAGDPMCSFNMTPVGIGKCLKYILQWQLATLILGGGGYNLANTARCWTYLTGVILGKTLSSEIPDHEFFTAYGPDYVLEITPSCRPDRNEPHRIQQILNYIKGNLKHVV
Description: as §3

[24] = system: WILL-2; assay: Antiproliferative activity, CCK-8, WILL-2; assay type: cell-based; details: WILL-2, Diffuse large B-cell lymphoma; read-out: Cytotoxicity (IC50 μM)
Description: as §1, §2

[25] = system: VMM5A; assay: Antiproliferative activity, CCK-8, VMM5A; assay type: cell-based; details: Melanoma, read-out: Cytotoxicity (IC50 μM)
Description: as §1, §2

For C[C@@H](c1ccc(C(=O)Nc2ccc(F)cc2N)cc1)n1nc(-c2ccc(CN(C)C)cc2)ccc1=O [Compound I-1], the IC50 [1] was 0.158 µM, the IC50 [2] was 0.24 ± 0.019 µM and the IC50 [3] was 0.556 ± 0.018 µM. The IC50 [4] was 0.116 ± 0.006 µM, the IC50 [5] was 0.671 ± 0.01 µM and the IC50 [6] was 0.131 ± 0.011 µM. The “relative tumor proliferation rate (T/C)” value ([7]; OCI-AML-3 transplanted tumor, 14 days) was 7.75%, the “body weight of mice” value ([7]; during the transplanted tumor experiment) was “remained basically unchanged” and the IC50 [8] was 0.381 µM. The IC50 [9] was 0.46 ± 0.032 µM, the IC50 [10] was 0.72 ± 0.032 µM and the IC50 [11] was 0.498 ± 0.036 µM. It also gave an IC50 [12] of 0.243 µM, an IC50 [13] of 0.142 ± 0.013 µM and an IC50 [14] of 0.427 ± 0.163 µM. The IC50 [15] was greater than 10000 nM, the IC50 [16] was 0.461 ± 0.034 µM and the IC50 [17] was 0.443 ± 0.185 µM. It also gave an IC50 [18] of 0.632 ± 0.066 µM, an IC50 [19] of 420 ± 105 nM and an IC50 [20] of 220 ± 4 nM. The IC50 [21] was 0.473 ± 0.171 µM, the IC50 [22] was 0.642 ± 0.025 µM and the IC50 [23] was greater than 100000 nM. It also gave an IC50 [24] of 0.347 ± 0.217 µM and an IC50 [25] of 0.856 ± 0.018 µM.
